The target of one experiment is T1, CYP1A2 (Homo sapiens, UniProt P05177).
T1 construct: purchased BD Biosciences
T1 sequence (P05177 1-516): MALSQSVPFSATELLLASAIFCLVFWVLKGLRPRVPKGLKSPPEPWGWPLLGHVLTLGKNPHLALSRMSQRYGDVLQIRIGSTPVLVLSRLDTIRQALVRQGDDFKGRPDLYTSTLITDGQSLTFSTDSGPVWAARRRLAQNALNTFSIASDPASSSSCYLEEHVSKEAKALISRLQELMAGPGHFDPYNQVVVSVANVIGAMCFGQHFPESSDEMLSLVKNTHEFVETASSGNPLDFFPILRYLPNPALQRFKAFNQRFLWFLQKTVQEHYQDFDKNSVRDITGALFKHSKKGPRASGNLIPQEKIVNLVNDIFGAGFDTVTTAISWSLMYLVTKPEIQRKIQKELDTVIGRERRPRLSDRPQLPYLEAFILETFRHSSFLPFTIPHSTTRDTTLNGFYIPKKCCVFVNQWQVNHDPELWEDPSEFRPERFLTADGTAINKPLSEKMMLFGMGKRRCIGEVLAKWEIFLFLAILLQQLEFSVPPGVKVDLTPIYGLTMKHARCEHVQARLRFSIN
As to the kind of experiment: CYP inhibition assay, recombinant enzyme, fluorescence. The class given is in vitro ADME. Particulars: test concentrations 1.1, 3.3 and 10 μM; read-out: Cytochrome P450 1A2 IC50. The method, then: (§1) CYP inhibition was performed with the recombinant enzymes CYP1A2, CYP2B6, CYP2C9, CYP2C19, CYP2D6, and CYP3A4 obtained from BD Biosciences. Compounds for CYP inhibition testing were prepared as 10 mM stock solutions in DMSO. Isoform-specific substrates were incubated at 37 °C individually with P450 enzymes (Table 5) and a range of test compound concentrations (1.1, 3.3 and 10 μM) in duplicate. Each isoform was tested separately with one reference compound, a known positive control inhibitor. During preincubation, the 96-well black plates were scanned with a fluorescence plate reader to eliminate false results originating from the autofluorescence of the test compounds. At the end of the incubation, product formation was monitored with fluorescence detection. A decrease in the formation of the metabolite compared to the “no inhibition” control samples was used to calculate the IC50 value.

The target of another experiment is T2, CYP2B6 (Homo sapiens, UniProt P20813).
T2 construct: purchased BD Biosciences
T2 sequence (P20813 1-491): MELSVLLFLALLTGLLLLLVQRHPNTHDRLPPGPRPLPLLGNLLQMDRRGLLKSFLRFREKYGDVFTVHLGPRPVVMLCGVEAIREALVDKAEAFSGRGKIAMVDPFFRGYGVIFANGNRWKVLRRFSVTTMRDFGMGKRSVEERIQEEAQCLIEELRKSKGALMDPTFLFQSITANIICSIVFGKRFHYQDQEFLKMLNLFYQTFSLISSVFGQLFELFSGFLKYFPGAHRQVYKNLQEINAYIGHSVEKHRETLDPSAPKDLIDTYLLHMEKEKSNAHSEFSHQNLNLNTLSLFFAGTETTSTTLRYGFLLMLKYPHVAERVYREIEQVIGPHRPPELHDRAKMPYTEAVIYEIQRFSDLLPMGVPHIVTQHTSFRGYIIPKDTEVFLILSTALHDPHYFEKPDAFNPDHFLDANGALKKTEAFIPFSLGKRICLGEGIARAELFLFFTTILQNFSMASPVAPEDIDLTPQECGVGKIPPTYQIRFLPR
The experiment is described as above. The class given is in vitro ADME. As to conditions: test concentrations 1.1, 3.3 and 10 μM; read-out: Cytochrome P450 2B6 IC50. The method, then:
as §1

The target in experiment [1] is T3, recombinant human mGlu7 receptor (Homo sapiens, UniProt Q14831).
T3 construct: expressed in transfected cells; host or cells: T-REx 293 (tetracycline-inducible)
As to the kind of experiment: NAM mGlu7 activity, forskolin-induced cAMP (HTRF) in T-REx 293 cell line. Particulars: T-REx 293 cells expressing human mGlu7; 5 µM LSP4-2022 (EC80), 5 µM forskolin. The class given is cell-based. On the technique in general: In TR-FRET formats the signal depends on donor and acceptor labels being close together.

T3 sequence (Q14831 35-915): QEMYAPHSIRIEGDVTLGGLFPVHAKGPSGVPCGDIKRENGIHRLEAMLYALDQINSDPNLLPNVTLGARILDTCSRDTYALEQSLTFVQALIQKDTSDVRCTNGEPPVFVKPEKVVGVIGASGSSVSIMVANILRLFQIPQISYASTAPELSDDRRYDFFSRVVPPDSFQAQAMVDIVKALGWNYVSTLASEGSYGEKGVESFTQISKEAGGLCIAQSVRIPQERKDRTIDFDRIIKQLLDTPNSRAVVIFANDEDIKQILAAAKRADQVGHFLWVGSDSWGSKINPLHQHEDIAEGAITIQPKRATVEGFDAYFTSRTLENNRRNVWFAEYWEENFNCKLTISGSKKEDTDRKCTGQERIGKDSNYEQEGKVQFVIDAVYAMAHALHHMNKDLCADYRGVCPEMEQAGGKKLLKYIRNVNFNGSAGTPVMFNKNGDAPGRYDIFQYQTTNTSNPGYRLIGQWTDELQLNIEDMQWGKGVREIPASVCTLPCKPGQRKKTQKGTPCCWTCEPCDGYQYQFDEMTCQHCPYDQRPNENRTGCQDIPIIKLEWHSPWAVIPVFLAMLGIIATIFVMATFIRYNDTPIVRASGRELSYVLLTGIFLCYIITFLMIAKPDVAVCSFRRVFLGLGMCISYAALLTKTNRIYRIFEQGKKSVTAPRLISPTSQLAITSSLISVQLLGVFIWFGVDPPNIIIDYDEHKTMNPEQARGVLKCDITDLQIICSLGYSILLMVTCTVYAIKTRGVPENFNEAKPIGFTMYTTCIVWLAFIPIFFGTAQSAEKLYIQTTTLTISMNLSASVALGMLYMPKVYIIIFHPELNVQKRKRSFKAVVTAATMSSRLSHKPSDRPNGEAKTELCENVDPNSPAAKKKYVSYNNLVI

Regarding `Cn1c(-c2ccccc2Cl)nc2ccc(-c3ccccc3)cc2c1=O` [ALX-065, 2-(2-chlorophenyl)-3-methyl-6-phenylquinazolin-4(3H)-one], the values for the IC50 (on CYP1A2; at CYP2B6; in experiment [1]) were 1.1 to 3.3 µM, over 10 µM and 4.65 ± 3.46 µM, respectively.
In the case of `COc1cccc(-c2ccc3nc(-c4ccccc4Cl)n(C)c(=O)c3c2)c1OC` [ALX-171, 2-(2-chlorophenyl)-6-(2,3-dimethoxyphenyl)-3-methylquinazolin-4(3H)-one], the IC50 (commonly the midpoint of a concentration-inhibition curve) on CYP1A2 is 3.3 to 10 µM; on CYP2B6, over 10 µM; in experiment [1], 6.14 ± 3.42 µM.

(Values after PMC9916658, “Design and Synthesis of New Quinazolin-4-one Derivatives with Negative mGlu7 Receptor Modulation Activity and Antipsychotic-Like Properties” (International Journal of Molecular Sciences, 2023).)
